# In patent publication US8097625B2, “Combination of sedative and a neurotransmitter modulator, and methods for improving sleep quality and treating depression” (priority 2003, dated 2012):
# Test system: subjects with insomnia related to major depressive disorder
# Experiment: DREAMDD clinical study: subjective sleep and daytime function (IVRS sleep diary)
# Format: in vivo, human
# Conditions: for Subjective Sleep Latency, Mean (SD) / Subjective Sleep Latency, Median / Subjective Total Sleep Time, Mean (SD) / Subjective Total Sleep Time, Median / Subjective Wake Time After Sleep Onset (WASO), Mean (SD) / Subjective Wake Time After Sleep Onset (WASO), Median: 3 mg nightly + fluoxetine, ITT
# Procedure: Depression Response to Eszopiclone in Adults With Major Depressive Disorder (DREAMDD): A Randomized, Double-Blind, Placebo-Controlled, Parallel-Group, 8-Week, Safety and Efficacy Study of Eszopiclone 3 mg Compared to Placebo in Subjects with Insomnia Related to Major Depressive Disorder
# This study was a double-blind randomized, placebo-controlled, parallel group study. […] All subjects must satisfy DSM-IV criteria for insomnia related to major depression.
# In addition, subjects were randomized at Visit 3 (end of baseline) to treatment with one of the following nightly (at bedtime): eszopiclone (3 mg) or matching placebo.
# Primary Analysis: The primary analysis was conducted using the ITT population for the primary efficacy variable, mean WASO during the first week of double-blind medication. This endpoint was computed by averaging the daily WASO values obtained via IVRS from Visit 3 to Visit 4. The analysis was conducted using an analysis of variance model (ANOVA) with treatment and site as fixed effects. The analysis was performed on rank-transformed data, using the SAS MIXED procedure. The cumulative distribution function by treatment was plotted.
# Other Secondary Analyses: Analysis of the secondary subjective sleep parameters, the 1, 2, 3, 4, 6, and 8 week post-randomization and double-blind averages of WASO (except week 1 average, which is the primary efficacy endpoint), TST, SL, mean number of awakenings, depth and quality of sleep, daytime alertness, ability to concentrate, physical well-being and ability to function was conducted on rank-transformed data using the same method as for the primary analysis.
# Sleep Diary Test: Patients are to call between 6 a.m. and 10 a.m. and answer the following questions. 1) Did you take study medication last night? 2) What time did you go to bed to go to sleep last night? 3) Did you fall asleep last night? (If No, go to question 10) 4) How long did it take you to fall asleep last night? Hours+Minutes? 5) Last night, did you wake up during the night, after falling asleep? 5a) How many times, did you wake up after falling asleep? 5b) After falling asleep for the first time, how much total time did you spend awake during the night? Hours+Minutes? 6) How long did you sleep last night? Hours+Minutes? 7) What time did you get out of bed to rise for the day? 8) What number best describes the quality of your sleep last night? (0=poor and 10=excellent) 9) How would you describe the depth of your sleep last night? (0=very light and 10=very deep) 10) What number best describes how you generally felt yesterday during the day? (0=very sleepy and 10=wide awake and alert) 11) What number best describes your ability to concentrate or think clearly during the day yesterday (0=poor, 10=excellent) 12) What number best describes your sense of physical well being yesterday? (0=poor, 10=excellent) 13) How would you describe your ability to function during the day yesterday? (0=poor and 10=excellent)
# Methods: Patients (n=545) met DSM-IV criteria for MDD and insomnia, including reported sleep latency (SL)≧30 min (median 73 min), wake time after sleep onset (WASO) ≧45 min (median 90 min), and total sleep time (TST)≦6.5h (median 294 min). All patients received fluoxetine QAM, and were randomly assigned to double-blind treatment with eszopiclone 3 mg or placebo QHS for 8 weeks. Subjective sleep and daytime function were assessed weekly.
# [1] = each treatment week, p<0.03, 3 mg QHS + fluoxetine QAM, 8 weeks
smiles,measurement,setting,value
"CN1CCN(C(=O)OC2c3nccnc3C(=O)N2c2ccc(Cl)cn2)CC1 (single isomer, unassigned; (+)) [Eszopiclone, (+) 6-(5-chloro-2-pyridinyl)-6,7-dihydro-7-oxo-5H-pyrrolo[3,4b]pyrazin-5-yl 4-methylpiperazine-1-carboxylate]","Subjective Sleep Latency, Mean (SD)",Double-Blind Average,53.0 (52.6) Minutes
same,"Subjective Sleep Latency, Median",Double-Blind Average,39.3 min
same,"Subjective Total Sleep Time, Mean (SD)",Double-Blind Average,395.5 (66.9) Minutes
same,"Subjective Total Sleep Time, Median",Double-Blind Average,400.0 min
same,"Subjective Wake Time After Sleep Onset (WASO), Mean (SD)",Double-Blind Average,72.6 (58.7) Minutes
same,"Subjective Wake Time After Sleep Onset (WASO), Median",Double-Blind Average,57.4 min
same,"Subjective Sleep Latency, Mean (SD)",Week 1,62.6 (61.0) Minutes
same,"Subjective Sleep Latency, Median",Week 1,43.3 min
same,"Subjective Total Sleep Time, Mean (SD)",Week 1,375.9 (76.5) Minutes
same,"Subjective Total Sleep Time, Median",Week 1,380.0 min
same,"Subjective Sleep Latency, Mean (SD)",Week 2,45.0 (52.2) Minutes
same,"Subjective Sleep Latency, Median",Week 2,30.0 min
same,"Subjective Total Sleep Time, Mean (SD)",Week 2,393.6 (103.0) Minutes
same,"Subjective Total Sleep Time, Median",Week 2,397.5 min
same,"Subjective Sleep Latency, Mean (SD)",Week 3,54.1 (100.9) Minutes
same,"Subjective Sleep Latency, Median",Week 3,25.0 min
same,"Subjective Total Sleep Time, Mean (SD)",Week 3,397.3 (88.1) Minutes
same,"Subjective Total Sleep Time, Median",Week 3,405.0 min
same,"Subjective Sleep Latency, Mean (SD)",Week 4,40.5 (50.5) Minutes
same,"Subjective Sleep Latency, Median",Week 4,24.2 min
same,"Subjective Total Sleep Time, Mean (SD)",Week 4,395.6 (87.3) Minutes
same,"Subjective Total Sleep Time, Median",Week 4,390.0 min
same,"Subjective Wake Time After Sleep Onset (WASO), Mean (SD)",Week 4,71.4 (80.3) Minutes
same,"Subjective Wake Time After Sleep Onset (WASO), Median",Week 4,42.5 min
same,"Subjective Sleep Latency, Mean (SD)",Week 6,43.8 (77.3) Minutes
same,"Subjective Sleep Latency, Median",Week 6,20.0 min
same,"Subjective Total Sleep Time, Mean (SD)",Week 6,408.5 (84.3) Minutes
same,"Subjective Total Sleep Time, Median",Week 6,420.0 min
same,"Subjective Wake Time After Sleep Onset (WASO), Mean (SD)",Week 6,76.5 (88.1) Minutes
same,"Subjective Wake Time After Sleep Onset (WASO), Median",Week 6,46.3 min
same,"Subjective Sleep Latency, Mean (SD)",Week 8,42.4 (42.3) Minutes
same,"Subjective Sleep Latency, Median",Week 8,30.0 min
same,"Subjective Total Sleep Time, Mean (SD)",Week 8,405.9 (80.6) Minutes
same,"Subjective Total Sleep Time, Median",Week 8,411.4 min
same,"Subjective Wake Time After Sleep Onset (WASO), Mean (SD)",Week 8,63.8 (74.1) Minutes
same,"Subjective Wake Time After Sleep Onset (WASO), Median",Week 8,43.1 min
same,WASO compared to placebo,"Weeks 1, 3-5, and 7-8, p<0.04, 3 mg QHS + fluoxetine QAM",significantly lower
same,ratings in sleep quality and depth compared to placebo,"across the treatment period, p<0.005, 3 mg QHS + fluoxetine QAM",higher ratings
same,sleep latency (SL) compared to placebo,[1],significantly lower
same,total sleep time (TST) compared to placebo,[1],greater
same,improvement in sleep,"patients with depression-related secondary insomnia, co-administration with fluoxetine",rapid and sustained improvement in sleep
same,"ratings of daytime alertness, ability to concentrate, and well-being compared to placebo","p≦0.02, 3 mg QHS + fluoxetine QAM",higher ratings
